What all share (assay): Antiproliferative activity, kinase-dependent Ba/F3 cells (MTT/MTS)
What all share (assay type): cell-based, murine

For one assay, the target named is T1, BaF3-TEL-TIE1 (Homo sapiens, UniProt P35590).
T1 construct: fused on or other part: P41212 (Transcription factor ETV6)
Particulars: 48 hours, cell viability, read-out: tel-TIE1 IC50. How it is done: (§1) Following up on the kinome data, the ability of compounds disclosed in the present invention to inhibit proliferation of cells that are dependent on selected protein kinases was tested. […] In addition, compounds were assayed to measure their capacity to inhibit TIE1, LYN, EML4-ALK, INSR and HCK kinases.
(§2) The murine cell line used is the BaF/3 cell line transformed with BCR/ABL cDNA (BaF/3-p210) or BCR/ABL-T315I mutant (Ba/F3-p210-T315I). These cells are maintained in RPMI/10% fetal calf serum (RPMI/FCS) supplemented with penicillin 50 μg/mL, streptomycin 50 μg/mL and L-glutamine […]. Untransformed BaF/3 cells (Wt-BaF/3) are similarly maintained with the addition of 15% of WEHI conditioned medium as a source of IL3.
(§3) Cells were seeded at a density of 20,000 cells/well into 96-well plates.
(§4) The background control wells to which media with no cells added and the vehicle control wells were included on each plate in triplicate. Cell viability was determined using MTT (Sigma, St. Louis, Mo., USA) and MTS (Promega, Madison, Wis., USA), according to the manufacturer's instructions. Results were analyzed using GraphPad Prism 5.0 (GraphPad Software, San Diego, Calif.) and IC50 values were calculated from cell viability dose-response curves and defined as the concentration of compound needed to reduce cell viability to 50% of a vehicle control (DMSO) (Table 3).
(§5) Cell proliferation assays of compounds of the invention against TIE1, LYN, EML4-ALK, INSR and Hck were conducted using identical methods as described above for BCR/ABL, except that BaF3-TEL-TIE1, BaF3-TEL-LYN, BaF3-EML4-ALK, BaF3-TEL-INSR, and BaF3-TEL-HCK are used instead of BaF3-BCR/ABL (Table 3 and 4).

Another assay concerns the target T2, BaF3-EML4-ALK (Homo sapiens, UniProt Q9UM73).
T2 construct: fused on or other part: Q9HC35 (Echinoderm microtubule-associated protein-like 4)
Particulars: 48 hours, cell viability, read-out: EML4-ALK IC50. How it is done: as §1, §2, §3, §4, §5

The next assay has as its target T3, BaF3-TEL-LYN (Homo sapiens, UniProt P07948).
T3 construct: fused on or other part: P41212 (Transcription factor ETV6)
Particulars: 48 hours, cell viability, read-out: tel-LYN IC50. As for the experimental part:
as §1, §2, §3, §4, §5

Another assay concerns the target T4, BaF3-BCR/ABL-T315I (Homo sapiens, UniProt P00519, T315I, cells depend on it).
T4 construct: fused on or other part: P11274 (Breakpoint cluster region protein)
Particulars: 48 hours, cell viability, read-out: BCR/ABL T315I IC50. As for the experimental part:
as §1, §2, §3, §4

Another assay deals with T5, BaF3-BCR/ABL (Homo sapiens, UniProt P00519).
T5 construct: fused on or other part: P11274 (Breakpoint cluster region protein)
Particulars: 48 hours, cell viability, read-out: BCR/ABL IC50. How it is done: as §1, §2, §3, §4

Where only a bound is given, the exact number is not on record here.

T2 sequence (Q9UM73 whole entry, change not shown, the tested form may be a part): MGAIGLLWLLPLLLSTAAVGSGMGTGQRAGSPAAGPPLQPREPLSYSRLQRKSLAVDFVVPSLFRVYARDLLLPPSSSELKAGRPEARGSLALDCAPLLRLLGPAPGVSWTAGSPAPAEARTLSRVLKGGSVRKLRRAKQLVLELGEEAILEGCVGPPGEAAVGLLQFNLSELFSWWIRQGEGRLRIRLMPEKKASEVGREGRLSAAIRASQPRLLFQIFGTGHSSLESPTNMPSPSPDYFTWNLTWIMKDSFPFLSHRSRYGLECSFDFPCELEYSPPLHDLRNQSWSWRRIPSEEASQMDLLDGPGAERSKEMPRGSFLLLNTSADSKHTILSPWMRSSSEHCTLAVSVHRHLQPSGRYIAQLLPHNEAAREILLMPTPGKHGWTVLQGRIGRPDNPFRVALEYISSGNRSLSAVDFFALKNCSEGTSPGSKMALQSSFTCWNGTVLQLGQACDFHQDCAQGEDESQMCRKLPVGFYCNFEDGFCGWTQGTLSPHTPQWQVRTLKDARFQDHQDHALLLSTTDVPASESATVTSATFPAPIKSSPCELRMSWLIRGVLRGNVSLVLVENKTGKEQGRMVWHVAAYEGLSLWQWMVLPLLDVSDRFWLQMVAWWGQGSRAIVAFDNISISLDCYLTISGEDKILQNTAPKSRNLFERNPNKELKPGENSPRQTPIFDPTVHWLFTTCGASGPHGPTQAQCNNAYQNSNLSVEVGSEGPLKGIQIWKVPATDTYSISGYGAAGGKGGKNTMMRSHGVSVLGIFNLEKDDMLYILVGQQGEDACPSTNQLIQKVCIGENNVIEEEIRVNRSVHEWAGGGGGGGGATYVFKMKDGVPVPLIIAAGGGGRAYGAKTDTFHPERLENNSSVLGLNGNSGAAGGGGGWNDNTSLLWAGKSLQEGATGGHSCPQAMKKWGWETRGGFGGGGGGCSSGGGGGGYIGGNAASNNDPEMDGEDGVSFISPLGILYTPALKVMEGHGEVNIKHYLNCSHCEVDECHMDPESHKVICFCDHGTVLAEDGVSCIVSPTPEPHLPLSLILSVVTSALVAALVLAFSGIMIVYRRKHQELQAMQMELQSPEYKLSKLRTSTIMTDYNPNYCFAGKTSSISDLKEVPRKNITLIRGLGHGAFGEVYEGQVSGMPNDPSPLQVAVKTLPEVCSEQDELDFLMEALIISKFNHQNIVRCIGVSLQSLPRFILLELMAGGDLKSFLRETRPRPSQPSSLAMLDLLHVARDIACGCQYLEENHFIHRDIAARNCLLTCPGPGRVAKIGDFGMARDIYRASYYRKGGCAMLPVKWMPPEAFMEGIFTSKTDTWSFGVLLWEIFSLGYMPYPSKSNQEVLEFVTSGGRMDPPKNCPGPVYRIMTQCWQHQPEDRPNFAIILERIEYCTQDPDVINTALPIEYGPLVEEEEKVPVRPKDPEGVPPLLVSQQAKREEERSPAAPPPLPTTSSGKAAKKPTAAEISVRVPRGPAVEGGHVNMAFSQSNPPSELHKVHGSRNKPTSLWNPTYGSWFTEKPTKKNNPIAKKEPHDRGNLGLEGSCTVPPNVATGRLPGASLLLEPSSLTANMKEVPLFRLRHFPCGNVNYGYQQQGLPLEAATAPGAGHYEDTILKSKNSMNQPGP
T1 sequence (P35590 whole entry, change not shown, the tested form may be a part): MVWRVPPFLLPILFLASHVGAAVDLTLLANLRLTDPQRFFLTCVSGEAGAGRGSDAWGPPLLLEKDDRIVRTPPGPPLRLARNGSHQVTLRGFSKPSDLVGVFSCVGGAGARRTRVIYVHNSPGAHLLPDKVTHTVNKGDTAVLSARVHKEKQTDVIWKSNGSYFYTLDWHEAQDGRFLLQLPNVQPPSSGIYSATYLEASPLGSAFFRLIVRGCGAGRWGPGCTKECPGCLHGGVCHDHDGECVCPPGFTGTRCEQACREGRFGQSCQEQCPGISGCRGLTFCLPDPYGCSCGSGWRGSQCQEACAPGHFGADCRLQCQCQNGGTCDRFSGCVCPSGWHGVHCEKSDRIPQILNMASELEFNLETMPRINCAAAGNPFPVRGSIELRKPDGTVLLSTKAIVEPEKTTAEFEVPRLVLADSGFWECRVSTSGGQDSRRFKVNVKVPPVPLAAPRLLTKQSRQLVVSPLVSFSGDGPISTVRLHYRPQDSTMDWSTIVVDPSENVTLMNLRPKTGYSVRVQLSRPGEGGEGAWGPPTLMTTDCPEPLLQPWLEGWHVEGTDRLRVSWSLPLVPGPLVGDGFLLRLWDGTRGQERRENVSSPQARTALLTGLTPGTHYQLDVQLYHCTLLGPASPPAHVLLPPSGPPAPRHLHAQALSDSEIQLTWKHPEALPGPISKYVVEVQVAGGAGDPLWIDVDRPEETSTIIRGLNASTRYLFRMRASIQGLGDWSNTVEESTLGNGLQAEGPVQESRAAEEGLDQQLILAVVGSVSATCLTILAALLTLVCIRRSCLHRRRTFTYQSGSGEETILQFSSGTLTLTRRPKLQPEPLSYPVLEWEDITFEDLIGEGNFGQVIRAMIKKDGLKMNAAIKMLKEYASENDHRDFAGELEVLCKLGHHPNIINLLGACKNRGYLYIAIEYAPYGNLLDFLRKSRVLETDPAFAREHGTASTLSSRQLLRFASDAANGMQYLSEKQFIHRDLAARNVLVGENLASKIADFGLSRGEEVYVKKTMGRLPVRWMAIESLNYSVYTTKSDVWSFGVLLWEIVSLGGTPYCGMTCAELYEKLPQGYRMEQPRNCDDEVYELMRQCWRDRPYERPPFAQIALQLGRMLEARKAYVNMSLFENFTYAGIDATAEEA
T3 sequence (P07948 whole entry, change not shown, the tested form may be a part): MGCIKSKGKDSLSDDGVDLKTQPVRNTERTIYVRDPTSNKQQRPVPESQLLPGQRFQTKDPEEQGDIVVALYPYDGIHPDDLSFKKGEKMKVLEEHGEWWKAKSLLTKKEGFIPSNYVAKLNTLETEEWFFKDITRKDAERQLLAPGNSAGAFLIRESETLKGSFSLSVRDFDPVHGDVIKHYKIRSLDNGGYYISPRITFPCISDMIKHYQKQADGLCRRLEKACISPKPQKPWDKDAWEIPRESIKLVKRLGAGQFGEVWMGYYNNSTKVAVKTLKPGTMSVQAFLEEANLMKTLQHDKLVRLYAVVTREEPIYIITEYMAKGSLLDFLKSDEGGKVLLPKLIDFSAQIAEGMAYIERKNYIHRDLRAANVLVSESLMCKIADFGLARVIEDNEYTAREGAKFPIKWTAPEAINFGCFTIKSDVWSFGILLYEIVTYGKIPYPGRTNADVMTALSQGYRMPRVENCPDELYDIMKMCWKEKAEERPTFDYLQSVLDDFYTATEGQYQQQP

Consider `CN1CN(c2ccc(Cl)c(C(F)(F)F)c2)Cc2cnc(Nc3ccc(N4CCOCC4)nc3)nc21` [ID-1, 6-(4-chloro-3-(trifluoromethyl)phenyl)-8-methyl-N-(6-morpholinopyridin-3-yl)-5,6,7,8-tetrahydropyrimido[4,5-d]pyrimidin-2-amine], for which the GI50 on BaF3-TEL-TIE1, on BaF3-EML4-ALK, on BaF3-TEL-LYN and on BaF3-BCR/ABL-T315I was > 10 µM in each case.
Take `Cc1ccc(Nc2ncc3c(n2)N(C)CN(c2cc(NC(=O)c4cccc(C(F)(F)F)c4)ccc2Cl)C3)cn1` [IC-7, N-(4-chloro-3-(1-methyl-7-((6-methylpyridin-3-yl)amino)-1,4-dihydropyrimido[4,5-d]pyrimidin-3(2H)-yl)phenyl)-3-(trifluoromethyl)benzamide]: the GI50 is 6.85 µM at BaF3-TEL-TIE1; 9.73 µM at BaF3-EML4-ALK; 5.34 µM at BaF3-TEL-LYN; > 10 µM on BaF3-BCR/ABL-T315I; 9 µM on BaF3-BCR/ABL.
On the same counts, the results for `CN1CN(c2ccc(F)c(Cl)c2)Cc2cnc(Nc3ccc(N4CCOCC4)nc3)nc21` [ID-2, 6-(3-chloro-4-fluorophenyl)-8-methyl-N-(6-morpholinopyridin-3-yl)-5,6,7,8-tetrahydropyrimido[4,5-d]pyrimidin-2-amine] are 11.8 µM, > 10 µM, 20.5 µM, > 10 µM and > 10 µM.
In the same order, the values of `Cc1ccc(N)cc1N1Cc2cnc(Nc3ccc(N4CCOCC4)nc3)nc2N(C)C1` [ID-6, 6-(5-amino-2-methylphenyl)-8-methyl-N-(6-morpholinopyridin-3-yl)-5,6,7,8-tetrahydropyrimido[4,5-d]pyrimidin-2-amine] are 0.809 µM, > 10 µM, 2.31 µM, > 10 µM and 0.353 µM.
With `CN1CN(c2ccc(Br)cc2F)Cc2cnc(Nc3ccc(N4CCOCC4)nc3)nc21` [ID-3, 6-(4-bromo-2-fluorophenyl)-8-methyl-N-(6-morpholinopyridin-3-yl)-5,6,7,8-tetrahydropyrimido[4,5-d]pyrimidin-2-amine], the GI50 on BaF3-TEL-TIE1 is 4.55 µM; at BaF3-EML4-ALK, 20 µM; on BaF3-TEL-LYN, 7.27 µM; on BaF3-BCR/ABL-T315I it was > 10 µM; on BaF3-BCR/ABL, > 10 µM.
On to `CN1CN(c2cccc(C(F)(F)F)c2)Cc2cnc(Nc3ccc(N4CCOCC4)nc3)nc21` [ID-5, 8-methyl-N-(6-morpholinopyridin-3-yl)-6-(3-(trifluoromethyl)phenyl)-5,6,7,8-tetrahydropyrimido[4,5-d]pyrimidin-2-amine], for which the GI50 at BaF3-TEL-TIE1 is 6.17 µM; on BaF3-EML4-ALK, > 10 µM; at BaF3-TEL-LYN, 15 µM; at BaF3-BCR/ABL-T315I, > 10 µM.
In the case of `Cc1ccc(C(F)(F)F)cc1N1Cc2cnc(Nc3ccc(N4CCOCC4)nc3)nc2N(C)C1` [ID-4, 8-methyl-6-(2-methyl-5-(trifluoromethyl)phenyl)-N-(6-morpholinopyridin-3-yl)-5,6,7,8-tetrahydropyrimido[4,5-d]pyrimidin-2-amine], the GI50 was 4.43 µM on BaF3-TEL-TIE1; 8.24 µM at BaF3-EML4-ALK; 4.29 µM at BaF3-TEL-LYN; > 10 µM on BaF3-BCR/ABL-T315I; 1.63 µM at BaF3-BCR/ABL.
